Assay results: article PMC8368026, “Theaflavin binds to a druggable pocket of TMEM16A channel and inhibits lung adenocarcinoma cell viability” (The Journal of Biological Chemistry, 2021)
Residue numbers refer to the chain shown, from its start.

Legend:
Format in all cases: cell-based
[1] = target: T1, TMEM16A (Mus musculus, UniProt Q8BHY3, R535A); assay: whole-cell patch clamp of mutant channel in HEK293T cells, […] TF; conditions: HEK-293T
T1 construct: gene Ano1; mouse TMEM16A (NM_178642.5)
T1 sequence (Q8BHY3 1-960 R535A): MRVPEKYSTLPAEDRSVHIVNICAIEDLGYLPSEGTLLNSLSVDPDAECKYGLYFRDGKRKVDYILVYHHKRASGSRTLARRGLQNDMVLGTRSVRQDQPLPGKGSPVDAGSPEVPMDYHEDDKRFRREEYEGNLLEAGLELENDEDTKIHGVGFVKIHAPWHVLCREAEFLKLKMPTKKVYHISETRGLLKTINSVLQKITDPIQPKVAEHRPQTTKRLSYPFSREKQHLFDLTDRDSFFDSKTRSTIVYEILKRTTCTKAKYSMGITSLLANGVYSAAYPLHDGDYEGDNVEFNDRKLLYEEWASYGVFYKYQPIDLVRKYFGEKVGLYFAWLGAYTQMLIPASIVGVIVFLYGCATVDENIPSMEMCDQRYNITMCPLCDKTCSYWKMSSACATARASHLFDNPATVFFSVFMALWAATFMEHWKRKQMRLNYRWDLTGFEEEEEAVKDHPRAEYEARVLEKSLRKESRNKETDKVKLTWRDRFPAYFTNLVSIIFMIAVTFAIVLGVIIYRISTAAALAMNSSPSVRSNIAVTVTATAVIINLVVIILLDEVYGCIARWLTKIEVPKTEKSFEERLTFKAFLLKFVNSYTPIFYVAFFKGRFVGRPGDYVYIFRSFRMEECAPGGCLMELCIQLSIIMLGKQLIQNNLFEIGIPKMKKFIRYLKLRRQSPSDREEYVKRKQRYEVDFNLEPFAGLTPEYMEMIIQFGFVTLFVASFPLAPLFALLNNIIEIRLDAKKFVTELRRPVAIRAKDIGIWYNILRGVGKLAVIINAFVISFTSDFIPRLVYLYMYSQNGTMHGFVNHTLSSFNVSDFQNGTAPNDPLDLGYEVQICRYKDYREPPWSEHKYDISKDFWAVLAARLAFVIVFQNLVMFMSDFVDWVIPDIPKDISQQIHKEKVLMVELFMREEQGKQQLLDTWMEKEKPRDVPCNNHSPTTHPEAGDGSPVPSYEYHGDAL

[2] = target: T2, TMEM16A (Mus musculus, UniProt Q8BHY3); assay: whole-cell patch clamp, recombinant channel in HEK293T cells; supported by mutagenesis
T2 construct: gene Ano1; mouse TMEM16A (NM_178642.5)
T2 sequence (Q8BHY3 1-960): T1 sequence (Q8BHY3 1-960 R535A) with A535R

[3] = target: T3, TMEM16A (Mus musculus, UniProt Q8BHY3, K603A); assay: whole-cell patch clamp of mutant channel in HEK293T cells, […] TF; conditions: HEK-293T
T3 construct: gene Ano1; mouse TMEM16A (NM_178642.5)
T3 sequence (Q8BHY3 1-960 K603A): T1 sequence (Q8BHY3 1-960 R535A) with A535R, K603A

[4] = target: T4, TMEM16A (Mus musculus, UniProt Q8BHY3, T539A); assay: as above; conditions: HEK-293T
T4 construct: gene Ano1; mouse TMEM16A (NM_178642.5)
T4 sequence (Q8BHY3 1-960 T539A): T1 sequence (Q8BHY3 1-960 R535A) with A535R, T539A

O=c1c(O)cc([C@H]2Oc3cc(O)cc(O)c3C[C@H]2O)cc2c([C@H]3Oc4cc(O)cc(O)c4C[C@H]3O)cc(O)c(O)c12 [TF, theaflavin]
inhibition at 10 µM [1]: 71%
IC50 [2]: 750 ± 130 nM
inhibition at 10 µM [3]: 54%
inhibition at 10 µM [4]: 51%
